One experiment concerns the target T1, pyrene-conjugated actin (Oryctolagus cuniculus, UniProt P68135).
T1 construct: purchased Cytoskeleton, Denver, Colo
Briefly: Pyrene actin polymerization assay. Format: biochemical. The following applies: for inhibition at 0.1 µM: 100 nM, read-out: Actin polymerization inhibition (%) 100 nM; for inhibition at 0.1 µM / inhibition at 1 µM: compared to vehicle control (DMSO); for inhibition at 1 µM: read-out: Actin polymerization inhibition (%) 1 μM; for IC50: mean ± SEM, triplicate. As for the experimental part: An actin polymerization kit was used to assess the direct actin-binding activity of each analogue at two concentrations: 100 nM and 1 μM. This kit is based on the enhanced fluorescence of pyrene-conjugated actin that occurs during polymerization. When pyrene-G-actin (monomer) forms pyrene-F-actin, fluorescence is enhanced. The enhanced fluorescence is used to follow polymerization over time. Table 2 lists activities as the percentage of actin polymerization inhibition, compared to the negative vehicle control (DMSO), along with calculated IC50.
Pyrene-Actin Polymerization Assays. Actin polymerization assays were performed in accordance with the manufacturer's instructions (Cytoskeleton, Denver, Colo.). Briefly, […] final concentration of monomeric actin (1:10 pyrene labeled) was incubated on ice for 10 min with one of various concentrations of one of the latrunculin derivatives. Samples were then equilibrated 10 min in an ELISA plate reader (BioTek, VT), after which polymerization was induced by adding KCl, MgCl2, and ATP. Compounds 1-14 were tested at 0.1, 0.5, 1.0, and 10 μM. The IC50 for each compound was calculated using GraphPad Prism 5.0.
Pyrene-actin polymerization assays. Actin polymerization inhibitory activity is assessed using the Cytoskeleton Actin Polymerization kit (Cytoskeleton, Denver, Colo.). Briefly, […] (final concentration) of monomeric actin (1:10 pyrene labeled) is incubated on ice for 10 min with one of various concentrations of the test latrunculin compound. Samples are equilibrated 10 min in an ELISA plate reader (BioTek, VT), after which polymerization is induced by adding KCl, MgCl2, and ATP. Compounds are tested at 0.1, 0.5, 1.0, and 10 μM. The IC50 for each compound is calculated using GraphPad Prism 5.0.

A further experiment relates to MDA-MB-231 cells. Put plainly: Cultrex BME cell invasion assay. The format is cell-based, human. The conditions noted are these: for fold more active against cell invasion than latrunculin A (compound 1): 0.5 μM. As for the experimental part:
The anti-invasive activities of compounds 1-14 were measured using a 96 well basement membrane extract (BME) cell invasion assay kit against the highly metastatic MDA-MB-231 cells. This assay employs a simplified Boyden Chamber with a polyethylene terephthalate membrane (8 μm pore size). Cell invasion was quantified using calcein-acetomethylester (calcein-AM). Cells internalize calcein-AM; intracellular esterases then cleave the acetomethylester moiety to generate free calcein. Free calcein fluoresces brightly. This fluorescence may be used to quantify the number of cells that have invaded across the BME. To correlate the anti-invasive activities of the latrunculin A derivatives with their actin-disrupting activities, compounds 1-14 were each tested at non-toxic concentrations. […] Accordingly, all compounds were tested at 0.1, 0.5, and 1.0 μM. Compound 3 killed 17% of MDA-MB-231 cells at 1.0 μM, while the same dose of compound 3 inhibited 95% of MDA-MB-231 cells' invasion. […] The anti-invasive activities of compounds 1-14 are attributed primarily to the inhibition of actin polymerization, not to cell death per se.
Cultrex® Cell Invasion Assay. Anti-invasive activities were measured using Trevigen's Cultrex® Cell Invasion Assay as described in K. Tamilarasan et al., BMC Cell Biol. 2006, 7, 17-30; and P. Borghesani et al., Development. 2002, 6, 1435-1442. About 50 μL of basement membrane extract (BME) coat was added to each well. After incubation for 4 h at 37° C. under 5% CO2, 50,000 MDA-MB-231 cells in 50 μL of serum free RPMI medium were added to each well in the top chamber, along with the test compound at one of several concentrations (0.1, 0.5, 1 μM). About 150 μL of RPMI medium was added to the lower chamber in 10% FBS and penicillin/streptomycin, using fibronectin ([…]) and N-formyl-met-leu-phe (10 nM) as chemoattractants. Cells were allowed to migrate to the lower chamber at 37° C. under 5% CO2. After 24 h, the top and bottom chambers were aspirated and washed with the washing buffer that had been supplied with the kit. About 100 μL of Cell Dissociation Solution/Calcein-AM solution was added to the bottom chamber, and the cells were incubated at 37° C. under CO2 for 1 h. Briefly, the cells internalize calcein-AM, and then the intracellular esterases cleave the AM moiety to generate free calcein. […] The number of cells that had invaded through the BME coat was calculated using a standard curve.

Experiment [1] deals with microvessel density marker CD31 in endothelial colony forming cells (ECFCs). Put plainly: Angiogenesis inhibition assay (CD31 in ECFCs). The format is cell-based. Here is the method: Effects on Angiogenesis. Angiogenesis inhibition assays were conducted using endothelial colony forming cells (ECFCs). The microvessel density marker CD31 was quantified using confocal laser scanning microscopy and immunohistochemistry.

Data on two compounds can be found in patent publication US20110136880A1, “Latrunculin-Based Macrolides and Their Uses” (priority 2009, published 2011).

Read-outs that look alike come from different tables or passages of the source.

Turning to `C/C1=C/C(=O)O[C@@H]2C[C@@H](CC[C@H](C)/C=C\C=C\CC1)O[C@@](O)([C@@H]1CSC(=O)N1CO)C2` [Compound 14, N-Hydroxymethyllatrunculin A], at pyrene-conjugated actin, the inhibition (as a rule, the percentage by which the read-out fell short of the control) at 0.1 µM was determined as 35%; the inhibition at 1 µM was found to be 90%; the IC50 (as a rule, the concentration that gives 50% inhibition) is 210 ± 54 nM. The “fold more active against cell invasion than latrunculin A (compound 1)” value in the experiment on MDA-MB-231 cells stood at 2.1 fold. In addition, the “factor of greater activity than compound 1, MDA-MB-231 invasion assay” value with MDA-MB-231 cells (assessed at 1 μM) was found to be 2.7. In experiment [1], this compound returned an inhibition at 2 µM of 100% and an inhibition at 10 µM of 100%. In addition, the concentration for half-maximal inhibition (IC50) in experiment [1] (read-out: IC50 CD31 in ECFCs) worked out at 0.063 µM. Besides, the IC50 in experiment [1] (read-out: antiangiogenic activity IC50 range) lay in the range of 0.04 to 0.82 µM.

For `COc1ccc(CC(=O)N2C(=O)SC[C@H]2[C@@]2(OC)C[C@H]3C[C@@H](CC[C@H](C)/C=C\C=C\CC/C(C)=C\C(=O)O3)O2)cc1` [Compound 11, 17-O-Methyl-N-(7′-methoxyphenylacetyl)latrunculin A], at pyrene-conjugated actin, the inhibition at 0.1 µM is 0%, the inhibition at 1 µM amounted to 13% and the IC50 is more than 10000 nM. The “fold more active against cell invasion than latrunculin A (compound 1)” value in the experiment with MDA-MB-231 cells worked out at 4.6 fold. In experiment [1], this compound came in with an inhibition at 2 µM of 100% and an inhibition at 10 µM of 100%. Besides, the IC50 in experiment [1] (read-out: IC50 CD31 in ECFCs) was less than 0.043 µM.
